Key:
[1] = system: ICH rats; test: Short-term neurological function of ICH rats (Garcia score, beam balance test); assay type: in vivo, rat; conditions: ICH model; for Beam balance score / Garcia score: 24 hours after modeling
Procedure: Experimental grouping: At 2 h after endovascular perforation or collagenase VII injection, Zea Longa score was used to evaluate the neurological function of rats. Successful model rats were randomly divided into groups for administration.
All groups were administrated through the tail vein injection except for group N administrated intraperitoneally.
The rats were fasted for 12 hours before operation, and were anesthetized with 4% isoflurane, and kept anesthetized with 2% isoflurane. The animals were fixed in the prone position in a stereotaxic apparatus with the body temperature maintained at about 37° C. A traditional skin incision of the head was prepared along the midline. According to the stereotaxic atlas of the rat brain translated by Zhuge Qichao (George Paxinos, Charles Watson, Paxinos, Watson, & Zhuge Qichao. The Rat Brain in Stereotaxic Coordinates [M]. People's Medical Publishing House, 2005), the right caudate nucleus of the rat was determined as 0.0 mm anterior, 3.0 mm lateral to the bregma, and 5.5 mm ventral to the cortical surface. After labeling, we drilled an open window in the skull, and 1 μL of 0.5 U collagenase VII was slowly injected for 5 minutes with a microinjector. After the injection, the needle was stagnated for 8 minutes and slowly withdrawn. Then the scalp was sutured after the burr hole of skull was sealed with a sterile bone wax, and the rats were returned to the cage for normal feeding. The sham group conducted the same procedure as the model group, but received an equal volume of physiological saline into the caudate nucleus.
According to Zea Longa's neurological function score, the rats were scored 2 hours after the operation when they were awake from anesthesia. Successful model rats with a score of 1 to 3 points were enrolled in the group: • 0 points: no neurological deficits with normal activity; • 1 point: inability to fully extend the contralateral forepaw; • 2 points: the animal appears to turn in circles when crawling; • 3 points: the animal tends to lean to the hemiplegic side; • 4 points: the animal cannot walk spontaneously or loses consciousness. 1.4 Assessment of Short-Term Neurological Function
The neurological function of rats was comprehensively evaluated with Garcia score and beam balance test 24 hours after modeling. The criteria of Garcia score are shown in Table 1, which evaluates the movement, sensation, climbing and limb symmetry of the rats with the score range of 3 to 18 points. The lower the score, the more severe the neurological injury. The criteria of the beam balance test are shown in Table 2, which evaluated the proprioception and body coordination of rats with the score range of 0 to 6 points. The higher the score, the more severe the neurological injury. Scoring was done independently by a technician blinded to the modeling and drug administration.

[2] = Toxic and side effects observed during all the experiments; assay type: in vivo; conditions: during all the experiments of the disclosure
[3] = group H, α-asarone emulsion injection 30 mg/kg tail vein
[4] = group L, α-asarone emulsion injection 7.5 mg/kg tail vein
[5] = group M, α-asarone emulsion injection 15 mg/kg tail vein

Structure (SMILES): C/C=C/c1cc(OC)c(OC)cc1OC [α-asarone, trans-2,4,5-trimethoxy-1-propenylbenzene]
- Beam balance score [1, 3]: 3.31
- Garcia score [1, 3]: 10.01
- Beam balance score [1, 4]: 3.16
- Garcia score [1, 4]: 10.60
- Beam balance score [1, 5]: 3.09
- Garcia score [1, 5]: 10.68
- curative effect compared with group V (vinpocetine) and group N (nimodipine) ([1]; groups L and M, 7.5 and 15 mg/kg): better
- toxic and side effects [2]: no obvious toxic and side effects

— US12636260B2, “Application of α-asarone in preparation of medicine for preventing or treating hemorrhagic stroke” (CHENGDU XINRUI TAIKANG TECHNOLOGY CO., LTD., priority 2021, dated 2026)
